{"source": "paper PMC9359617", "about": "(Nature structural & molecular biology, 2022)", "molecules": {"B1": {"name": "Chs2 from Candida albicans (CaChs2), wild type (enzyme, UniProt P30572 1-1009, looked up)", "chain": "MSYNNPNNSNSHLRPHAYNNSRRDDSDGDESSIEFLNQRSNTPLTQGTYNYHNTSTNSLNFQQPEPIYRNQTRTSLSDSYYDHPIFDTSQTQIQPPHDNPFTESYEMTDTSYQGNDHHYRTGQPNHLMNPTYNQAFIPHVYDEEDNDEQEYDQRIQYNQFQGDHFDLAAISYADDESQSQLDYVPTERVIPEGEEEEEEGETSFEKEPGSETISGPFGEERSFEEPPPQQEVRSKKLTRATGLNGHLVLDCPVADELLSKFPDYNPAEKSGGLSREFAFMRYTAVTCGPSNFYRDAYILRPVHYPIPRQTELMIVITMYNEDDILLGRTLKGVFKNIKYLESKARSSTWGKDSWKKIVVCIVSDGRTKINERAQALLAGLGVYQEGLAKSRVDDKKVQAHMFEYTTRVGISKVTDDVVKLTTEKVVPVQMLFCLKETNAKKINSHRWCFQAIGQVLDPKIVVLLDCGTQPSGRSLYELWKEFDRDHRVAGACGEITTSLKKRQMITNPLVYGQNFEYKISNILDKPTESSFGFISVLPGAFSAYRFIALQNDINGIGPLEKYFKGEFLHSSGELDPNDDEFQMKHLMLKEEAGIFTSNMYLAEDRILCFELVAKRGCNWLLRYCKSARAETDVPEGLAEFILQRRRWLNGSFFAAIYSLVHFYKVWTSSHSFGRKIFLHIEFFYQLINLIVSWFSIGSYFLVFRILTTSLGDKALGFAPGKILSVIFLWLYLASIVTTFVLSFGNKPKGTEKFYVTIVIFFAILMAYMIFAAIFMAVHSIQDIYRSGTRITVSLFFQNSEFRDLVVATSSTYALYFLASFLYFEPWHMFTSFVQYILLSPSYVNVLNIYAFCNIDDISWGTKGEVGGKSLGEAKLREDGTFDVSVPISKEQINQSYLDQLEKIRDPAPPEEKVLVTNTEDYYAFIRSMTVLVWMFTNFVVIALVLETGGFNQFVEATDLANLKSNRAAVFLTVILWTVAFMALFRFIGCIYYLITRLGREIKASEHATK"}}, "key": {"[1]": {"biological_target": "T1, CaChs2 (Candida albicans, UniProt P30572)", "T1 sequence (P30572 1-1009)": "B1 chain", "assay": "CaChs2 activity assay", "assay_type": "biochemical", "settings": "purified recombinant CaChs2; formation of water-insoluble chitin polymers from UDP-GlcNAc"}, "[2]": {"biological_target": "CaChs2 Q643A (Candida albicans, UniProt P30572, Q643A)", "assay": "Isothermal titration calorimetry, CaChs2 Q643A", "assay_type": "binding", "settings": "Q643A mutant, ITC"}, "[3]": {"system": "CaChs2 W647A", "assay": "Isothermal titration calorimetry, CaChs2 W647A", "assay_type": "binding, Candida albicans", "settings": "ITC"}, "[4]": {"system": "C. albicans", "settings": "against C. albicans; lower end printed as < 0.5; cited from earlier work"}, "[5]": {"biological_target": "CaChs2 WT (Candida albicans, UniProt P30572)", "assay": "Isothermal titration calorimetry, CaChs2 WT", "assay_type": "binding"}, "[6]": {"biological_target": "T1, CaChs2", "assay": "CaChs2 inhibition assay", "assay_type": "biochemical"}, "[7]": {"system": "CaChs2 T631A", "assay": "CaChs2 inhibition assay, T631A mutant", "assay_type": "biochemical, Candida albicans", "settings": "alanine mutation of T631"}, "[8]": {"biological_target": "the molecule itself", "assay": "cryo-EM structure"}}, "note": "Where two headings read alike, the source gives them in different places.", "data": [{"molecule": "CC(=O)N[C@H]1[C@@H](OP(=O)(O)OP(=O)(O)OC[C@H]2O[C@@H](n3ccc(=O)[nH]c3=O)[C@H](O)[C@@H]2O)O[C@H](CO)[C@@H](O)[C@@H]1O", "note": "[UDP-GlcNAc]", "values": [{"measurement": "Km", "setting": "[1]", "value": "6 ± 0.7", "unit": "mM"}, {"measurement": "kcat", "setting": "[1]", "value": "8.6 ± 2.7 min−[1]"}]}, {"molecule": "C[C@@H]([C@H](N)C(=O)N[C@H](C(=O)O)[C@H]1O[C@@H](n2ccc(=O)[nH]c2=O)[C@H](O)[C@@H]1O)[C@H](O)c1ccc(O)cn1", "note": "[nikkomycin Z]", "values": [{"measurement": "effect of the mutation on affinity to nikkomycin Z", "setting": "[2]", "value": "only moderately affects the affinity"}, {"measurement": "reduction of affinity to nikkomycin Z, mutant vs WT", "setting": "[3]", "value": "about 18 fold"}, {"measurement": "MIC80", "setting": "[4]", "value": "0.5 to 32", "unit": "µg/mL"}, {"measurement": "Kd", "setting": "[5]", "value": "~190", "unit": "nM"}, {"measurement": "Ki", "setting": "[6]", "value": "1500 ± 500", "unit": "nM"}, {"measurement": "difference between Ki of the inhibitor and Km of UDP-GlcNAc", "setting": "[6]; affinity of nikkomycin Z to CaChs2 compared with UDP-GlcNAc", "value": "three orders of magnitude"}]}, {"molecule": "NC(=O)OC[C@H](O)[C@@H](O)[C@H](N)C(=O)N[C@H](C(=O)O)[C@H]1O[C@@H](n2cc(C(=O)O)c(=O)[nH]c2=O)[C@H](O)[C@@H]1O", "note": "[polyoxin D]", "values": [{"measurement": "Ki", "setting": "[6]; purified CaChs2", "value": "3200 ± 1400", "unit": "nM"}, {"measurement": "decrease of affinity for polyoxin D, mutant vs WT", "setting": "[7]", "value": "about threefold"}]}, {"molecule": "B1", "values": [{"measurement": "stoichiometry N", "setting": "[8]", "value": 2}]}]}
